Key:
[1] = target: T1, Bovine Serum Albumin (BSA) (Bos taurus, UniProt P02769); assay: Labelling of BSA with Pt—POP, absorbance after dialysis; format: binding; settings: after 24 hours of dialysis
T1 construct: purchased Sigma-Aldrich
Text: A common model protein (BSA=bovine serum albumin) was labeled with Pt—POP to enable BSA differentiation, with oxygen sensitivity, in biological media.

[2] = Storage and solution stability
[3] = In vitro hypoxia detection by Pt—POP (epi-fluorescence microscope); settings: Pt—POP aqueous solution in a Petri dish
Text: For identification of hypoxic environments, Pt—POP has been used. The efficiency of Pt—POP as an oxygen sensor is shown in FIG. 16, including its effective usage for live bioimaging applications. […] The progressive phosphorescence intensity signal increase immediately after oxygen levels are decreased below 20% for the Pt—POP aqueous solution in a Petri dish should be noted. Results for this sensor in conjunction with the excellent animal model for hypoxia, C. elegans worms, are shown in FIG. 17, whereas similar results in E. coli bacteria and in D. rerio zebra fish are shown in FIGS. 18 and 19, respectively. In FIG. 18, conditions were: 18A: E. coli bacteria with 64X, DIC; 18B: E. coli bacteria with 64X, 405-520,222 g, 0.4 ms; 18C: E. coli bacteria incubated with Pt—POP 64X, 405-520,222 g, 0.4 ms; 18D: E. coli bacteria incubated with Pt—POP on 8th day 64X, 405-520,222 g, 0.4 ms. In FIG. 19, pictures were taken for stationary fish directly after injection (A) and 7 minutes after induced hypoxia (B), and for a swimming fish (C).

SNU-5 cells = assay: MTT cell viability (cytotoxicity); settings: SNU-5 cell lines, buffered aqueous solution, FIG. 15
Procedure: SNU-5 cells were purchased from ATCC (cat. # CRL-5973) (American Type Culture Collection, Manassas, Va.), and maintained in Iscove's Modified Dulbecco's Medium (IMDM) (ATCC, cat. #30-2005) with 10% FBS (Fisherbrand Research Grade Fetal Bovine Serum, cat. #03-600-511) (Fisher Scientific UK Ltd., Loughborough). Cells (10,000/well) were seeded on 96-well plates and the desired particle amounts were added to the wells. The plates were incubated for an additional 24 h at 37° C. (5% CO2). After incubation, cell viability was evaluated using MTT. MTT dissolved in culture media (5 mg/mL) was added to each well (25 L/well). The cells were incubated for 4 h at 37° C. (5% CO2) after which time 0.08 M HCl in 2-propanol (100 L/well) was added. Light absorption was measured on a Synergy 2 multi-mode microplate reader (BioTek, Winooski, Vt.). The viability of the cells exposed to particles was expressed as a percentage of the viability of cells grown in the absence of particles on the same plate.
Cells were grown to ˜90% confluence in 96 well plate format in complete growth media containing 10% fetal bovine serum. PCHNPs or TPPTs in 0.1 wt % chitosan were dosed on cells at concentrations ranging from 0.5 to 200 μg/mL. Viability after 24 h of exposure was evaluated using MTT reagent and compared to healthy cells on the same plate. […]

T1 sequence (P02769 25-607): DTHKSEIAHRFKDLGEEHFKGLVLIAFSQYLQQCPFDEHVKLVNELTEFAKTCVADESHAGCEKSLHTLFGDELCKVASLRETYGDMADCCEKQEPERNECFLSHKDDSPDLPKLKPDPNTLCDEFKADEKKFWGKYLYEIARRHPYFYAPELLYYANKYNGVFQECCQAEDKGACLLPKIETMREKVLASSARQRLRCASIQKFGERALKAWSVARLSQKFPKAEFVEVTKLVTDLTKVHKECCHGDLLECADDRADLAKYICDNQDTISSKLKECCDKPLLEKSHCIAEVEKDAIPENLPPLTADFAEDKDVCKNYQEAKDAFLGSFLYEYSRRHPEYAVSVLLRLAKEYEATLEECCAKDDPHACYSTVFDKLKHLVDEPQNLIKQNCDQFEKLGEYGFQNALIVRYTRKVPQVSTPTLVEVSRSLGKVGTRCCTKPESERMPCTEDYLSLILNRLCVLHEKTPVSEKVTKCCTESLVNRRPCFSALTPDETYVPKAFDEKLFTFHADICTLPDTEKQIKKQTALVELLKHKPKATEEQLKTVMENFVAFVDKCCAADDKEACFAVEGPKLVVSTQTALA

Row | Compound | absorbance of PBS control lower than BSA sample (binding to BSA) [1] | stability in solution ([2]; in presence of a biocompatible polymer such as chitosan or PAN) | stability in solution ([2]; without polymer) | oxygen level below which phosphorescence intensity signal increases [3] | biological toxicity (MTT assay) (SNU-5 cells)
1 | M4[Pt2(P2O5H2)4].2H2O [Pt—POP] | approximately 10 times | dramatically enhanced from minutes to years | long-term instability | below 20% | –
2 | Na8[Au(TPPTS)3] [AuP] | – | – | – | – | benign
3 | O=S(=O)([O-])c1cccc(P(c2cccc(S(=O)(=O)[O-])c2)c2cccc(S(=O)(=O)[O-])c2)c1.[Na+].[Na+].[Na+] [TPPTS, 3,3′,3″-Phosphanetriyltris(benzenesulfonic acid) trisodium salt, reference compound] | – | – | – | – | benign
